Laboratory results taken from patent publication US7598382B2, “Aryl substituted imidazoquinolines” (Coley Pharmaceutical Group, Inc., priority 2002, dated 2009).
Where a name gives a salt, the structure may show the parent alone.

Row | Compound | melting point
1 | CCOCc1nc2c(N)nc3cc(-c4cccnc4)ccc3c2n1C[C@H]1COC(C)(C)O1 [Example 489, (S)-1-[(2,2-Dimethyl-1,3-dioxolan-4-yl)methyl]-2-ethoxymethyl-7-(pyridin-3-yl)-1H-imidazo[4,5-c]quinolin-4-amine] | 157 to 158 °C
2 | CCOCc1nc2c(N)nc3cc(-c4ccsc4)ccc3c2n1CC(C)(C)O [Example 125, 1-[4-Amino-2-ethoxymethyl-7-(thiophen-3-yl)-1H-imidazo[4,5-c]quinolin-1-yl]-2-methylpropan-2-ol] | 204 to 205 °C
3 | CCCc1nc2c(N)nc3cc(/C=C/c4cccc(OC)c4)ccc3c2n1CC(C)C [Example 443, (E)-7-[2-(3-Methoxyphenyl)vinyl]-1-(2-methylpropyl)-2-propyl-1H-imidazo[4,5-c]quinolin-4-amine] | 181 to 183 °C
4 | CCCCc1nc2c(N)nc3cc(-c4cccnc4)ccc3c2n1CCNC(=O)NC(C)C [Example 392, N-{2-[4-Amino-2-butyl-7-(pyridin-3-yl)-1H-imidazo[4,5-c]quinolin-1-yl]ethyl}-N′-(1-methylethyl)urea] | 240 to 241 °C
5 | CCCc1nc2c(N)nc3cc(-c4cccnc4)ccc3c2n1CC1CCNCC1 (as salt: hydrochloride) [Example 410, 1-(Piperidin-4-ylmethyl)-2-propyl-7-(pyridin-3-yl)-1H-imidazo[4,5-c]quinolin-4-amine trihydrochloride] | > 250 °C
6 | Nc1nc2cc(-c3ccccc3)ccc2c2c1nc(CC1CC1)n2CCOc1ccccc1 [Example 196, 2-Cyclopropylmethyl-1-(2-phenoxyethyl)-7-phenyl-1H-imidazo[4,5-c]quinolin-4-amine] | 188 to 189 °C
7 | CC(C)Cn1cnc2c(N)nc3cc(C=Cc4ccccc4)ccc3c21 [Example 427, 1-(2-Methylpropyl)-7-styryl-1H-imidazo[4,5-c]quinolin-4-amine] | 257 to 258 °C
8 | CCOCc1nc2c(N)nc3cc(-c4cncc(OC)c4)ccc3c2n1CC(C)(C)OCCS(C)(=O)=O [Example 364, 2-Ethoxymethyl-1-{2-[2-(methanesulfonyl)ethoxy]-2-methylpropyl}-7-(5-methoxypyridin-3-yl)-1H-imidazo[4,5-c]quinolin-4-amine] | 186 to 188 °C
9 | CCCCc1nc2c(N)nc3cc(CCc4ccccc4)ccc3c2n1CC(C)C [Example 8, 2-Butyl-1-isobutyl-7-phenethyl-1H-imidazo[4,5-c]quinolin-4-amine] | 181 to 182 °C
10 | CC(C)Cn1cnc2c(N)nc3ccc(-c4ccsc4)cc3c21 [Example 12, 1-Isobutyl-8-(thiophen-3-yl)-1H-imidazo[4,5-c]quinolin-4-amine] | 235 to 236 °C
11 | CCOCc1nc2c(N)nc3cc(-c4ccc(Cl)cc4)ccc3c2n1CCCOC [Example 169, 7-(4-Chlorophenyl)-2-ethoxymethyl-1-(3-methoxypropyl)-1H-imidazo[4,5-c]quinolin-4-amine] | 188 to 190 °C
12 | CCCCn1c(COCC)nc2c(N)nc3ccc(-c4cccnc4)cc3c21 [Example 19, 1-Butyl-2-ethoxymethyl-8-(pyridin-3-yl)-1H-imidazo[4,5-c]quinolin-4-amine] | 220 to 222 °C
13 | Nc1nc2cc(-c3ccccc3)ccc2c2c1ncn2CCCN1CCCC1=O [Example 204, 1-[3-(4-Amino-7-phenyl-1H-imidazo[4,5-c]quinolin-1-yl)propyl]pyrrolidin-2-one] | 201 to 204 °C
14 | CCOCc1nc2c(N)nc3cc(-c4cccnc4)ccc3c2n1CCCCNC(=O)C1CCCC1 (hydrate or solvate) [Example 374, N-{4-[4-Amino-2-ethoxymethyl-7-(pyridin-3-yl)-1H-imidazo[4,5-c]quinolin-1-yl]butyl}cyclopentanecarboxamide] | 196 to 198 °C
15 | CCCc1nc2c(N)nc3cc(-c4cccnc4)ccc3c2n1CC1CCN(C(=O)OC(C)(C)C)CC1 [Example 409, tert-Butyl 4-{[4-amino-2-propyl-7-(pyridin-3-yl)-1H-imidazo[4,5-c]quinolin-1-yl]methyl}piperidine-1-carboxylate] | 209 to 211 °C
16 | CCOCc1nc2c(N)nc3cc(-c4cccnc4)ccc3c2n1CCCCS(=O)(=O)NC [Example 369, Methyl 4-[4-amino-2-ethoxymethyl-7-(pyridin-3-yl)-1H-imidazo[4,5-c]quinolin-1-yl]butane-1-sulfonamide] | 216 to 218 °C
17 | CCCCc1nc2c(N)nc3cc(-c4ccc(OCCC)cc4)ccc3c2n1CC(C)C [Example 5, 2-Butyl-1-isobutyl-7-(4-propoxyphenyl)-1H-imidazo[4,5-c]quinolin-4-amine] | 194 to 197 °C
18 | CCOCc1nc2c(N)nc3cc(-c4cccnc4)ccc3c2n1CC(C)(C)O [Example 126, 1-[4-Amino-2-ethoxymethyl-7-(pyridin-3-yl)-1H-imidazo[4,5-c]quinolin-1-yl]-2-methylpropan-2-ol] | 197 to 199 °C

Row | Compound | melting point
19 | CCOCc1nc2c(N)nc3cc(-c4ccccc4)ccc3c2n1CCCCS(=O)(=O)N(C)C [Example 366, Dimethyl 4-[4-amino-2-ethoxymethyl-7-phenyl-1H-imidazo[4,5-c]quinolin-1-yl]butane-1-sulfonamide] | 207 to 208 °C
20 | CCOCc1nc2c(N)nc3cc(-c4cccnc4)ccc3c2n1CCCCS(=O)(=O)N(C)C [Example 365, Dimethyl 4-[4-amino-2-ethoxymethyl-7-(pyridin-3-yl)-1H-imidazo[4,5-c]quinolin-1-yl]butane-1-sulfonamide] | 205 to 206 °C
21 | CCCc1nc2c(N)nc3cc(-c4cccnc4)ccc3c2n1CCCCNC(=O)C1CCCC1 (hydrate or solvate) [Example 382, N-{4-[4-Amino-2-propyl-7-(pyridin-3-yl)-1H-imidazo[4,5-c]quinolin-1-yl]butyl}cyclopentanecarboxamide] | 180 to 182 °C
22 | COCCc1nc2c(N)nc3cc(-c4cncc(CO)c4)ccc3c2n1CC(C)C [Example 146, {5-[4-Amino-2-(2-methoxyethyl)-1-(2-methylpropyl)-1H-imidazo[4,5-c]quinolin-7-yl]pyridin-3-yl}methanol] | 202 to 204 °C
23 | CCOCc1nc2c(N)nc3cc(-c4cccnc4)ccc3c2n1CCCCNC(=O)NC1CCCC1 [Example 377, N-{4-[4-Amino-2-ethoxymethyl-7-(pyridin-3-yl)-1H-imidazo[4,5-c]quinolin-1-yl]butyl}-N′-cyclopentylurea] | 190 to 192 °C
24 | CCOCc1nc2c(N)nc3cc(-c4ccccc4)ccc3c2n1CC1COC(C)(C)O1 (centres unmarked) [Example 161, 1-[(2,2-Dimethyl-1,3-dioxolan-4-yl)methyl]-2-ethoxymethyl-7-phenyl-1H-imidazo[4,5-c]quinolin-4-amine] | 168 to 170 °C
25 | CCOCc1nc2c(N)nc3cc(-c4ccc(-c5ccc6c(c5)nc(N)c5nc(COCC)n(CC(C)(C)O)c56)cc4)ccc3c2n1CC(C)(C)O [Example 474, 1-(4-Amino-7-{4-[4-amino-2-ethoxymethyl-1-(2-hydroxy-2-methylpropyl)-1H-imidazo[4,5-c]quinolin-7-yl]phenyl}-2-ethoxymethyl-1H-imidazo[4,5-c]quinolin-1-yl)-2-methylpropan-2-ol] | 325 to 328 °C
26 | CC(C)Cn1cnc2c(N)nc3cc(-c4cccnc4)ccc3c21 [Example 428, 1-(2-Methylpropyl)-7-(pyridin-3-yl)-1H-imidazo[4,5-c]quinolin-4-amine] | 125 °C
27 | CCOCc1nc2c(N)nc3cc(-c4ccncc4)ccc3c2n1CCCOC [Example 165, 2-Ethoxymethyl-1-(3-methoxypropyl)-7-(pyridin-4-yl)-1H-imidazo[4,5-c]quinolin-4-amine] | 225 to 226 °C
28 | CCc1nc2c(N)nc3cc(-c4cccnc4)ccc3c2n1CC1CCN(S(C)(=O)=O)CC1 (hydrate or solvate) [Example 406, 2-Ethyl-1-{[1-(methanesulfonyl)piperidin-4-yl]methyl}-7-(pyridin-3-yl)-1H-imidazo[4,5-c]quinolin-4-amine] | 228 to 229 °C
29 | CCOCc1nc2c(N)nc3cc(-c4ccccc4)ccc3c2n1CC1CCN(S(C)(=O)=O)CC1 [Example 193, 2-Ethoxymethyl-1-{[1-(methanesulfonyl)piperidin-4-yl]methyl}-7-phenyl-1H-imidazo[4,5-c]quinolin-4-amine] | 224 to 225 °C
30 | CCOCc1nc2c(N)nc3cc(-c4cccnc4)ccc3c2n1CCCCNC(=O)c1ccc(C(OCCN(C)C)c2ccccc2)cc1 (centres unmarked) [Example 494, N-[4-(4-Amino-2-ethoxymethyl-7-(pyridin-3-yl)imidazo[4,5-c]quinolin-1-yl)butyl]-4-[(2-dimethylaminoethoxy)phenylmethyl]benzamide] | 157 to 161 °C
31 | CC(C)Cn1cnc2c(N)nc3cc(CCc4ccccc4)ccc3c21 [Example 430, 1-(2-Methylpropyl)-7-phenethyl-1H-imidazo[4,5-c]quinolin-4-amine] | 172 to 173 °C
32 | CCCCc1nc2c(N)nc3cc(-c4cccnc4)ccc3c2n1CCN1CCCS1(=O)=O [Example 393, 1-[2-(1,1-Dioxo-1-isothiazolidin-2-yl)ethyl]-2-butyl-7-(pyridin-3-yl)-1H-imidazo[4,5-c]quinolin-4-amine] | 290 to 292 °C
33 | CCOCc1nc2c(N)nc3cc(-c4ccc(OC(C)C)cc4)ccc3c2n1CCCOC [Example 173, 2-Ethoxymethyl-7-[4-(2-propoxy)phenyl]-1-(3-methoxypropyl)-1H-imidazo[4,5-c]quinolin-4-amine] | 175 to 177 °C
34 | CCOCc1nc2c(N)nc3cc(-c4cccc(C(=O)N5CCCC5)c4)ccc3c2n1CC(C)(C)O [Example 129, {3-[4-Amino-2-ethoxymethyl-1-(2-hydroxy-2-methylpropyl)-1H-imidazo[4,5-c]quinolin-7-yl]phenyl}pyrrolidin-1-ylmethanone] | 216.5 to 217.5 °C
35 | CCOCc1nc2c(N)nc3cc(-c4cccnc4)ccc3c2n1CC1CCCCN1 (centres unmarked) (as salt: hydrochloride) [Example 491, 2-Ethoxymethyl-1-(piperidin-2-ylmethyl)-7-(pyridin-3-yl)-1H-imidazo[4,5-c]quinolin-4-amine trihydrochloride] | > 250 °C
